Assay results: article PMC11681614, “A crucial active site network of titratable residues guides catalysis and NAD ^+ binding in human succinic semialdehyde dehydrogenase” (Protein Science : A Publication of the Protein Society, 2024)
Values belong to the molecule of their own block, whether it stands above or below them.

Legend:
[1] = target: T1, hSSADH (human succinic semialdehyde dehydrogenase) (Homo sapiens, UniProt P51649); assay: product inhibition, NADH […], replots of slopes and intercepts; type: biochemical
T1 construct: gene ALDH5A1; purified recombinant homotetramer, expressed and purified as in Didiasova et al. 2024
T1 sequence (P51649 48-535): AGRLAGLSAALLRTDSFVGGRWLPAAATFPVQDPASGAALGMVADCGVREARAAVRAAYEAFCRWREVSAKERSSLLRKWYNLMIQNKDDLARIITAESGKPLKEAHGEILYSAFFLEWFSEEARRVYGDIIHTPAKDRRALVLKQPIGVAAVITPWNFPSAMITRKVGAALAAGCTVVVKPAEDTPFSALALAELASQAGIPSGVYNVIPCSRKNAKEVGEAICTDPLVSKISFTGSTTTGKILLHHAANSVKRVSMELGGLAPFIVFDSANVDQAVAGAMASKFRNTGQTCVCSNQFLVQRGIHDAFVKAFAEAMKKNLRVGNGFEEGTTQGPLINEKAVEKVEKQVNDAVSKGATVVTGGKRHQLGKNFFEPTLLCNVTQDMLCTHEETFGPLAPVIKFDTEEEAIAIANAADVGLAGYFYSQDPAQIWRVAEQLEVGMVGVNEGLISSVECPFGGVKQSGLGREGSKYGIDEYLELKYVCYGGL

[2] = target: T1, hSSADH (human succinic semialdehyde dehydrogenase); assay: intrinsic fluorescence quenching (ex […] nm, em […] nm), hyperbolic fit; type: binding
[3] = target: T2, hSSADH (human succinic semialdehyde dehydrogenase) (Homo sapiens, UniProt P51649, K214A); assay: as above; type: binding; details: read-out: K DNAD+
T2 construct: gene ALDH5A1; purified recombinant homotetramer, expressed and purified as in Didiasova et al. 2024
T2 sequence (P51649 48-535 K214A): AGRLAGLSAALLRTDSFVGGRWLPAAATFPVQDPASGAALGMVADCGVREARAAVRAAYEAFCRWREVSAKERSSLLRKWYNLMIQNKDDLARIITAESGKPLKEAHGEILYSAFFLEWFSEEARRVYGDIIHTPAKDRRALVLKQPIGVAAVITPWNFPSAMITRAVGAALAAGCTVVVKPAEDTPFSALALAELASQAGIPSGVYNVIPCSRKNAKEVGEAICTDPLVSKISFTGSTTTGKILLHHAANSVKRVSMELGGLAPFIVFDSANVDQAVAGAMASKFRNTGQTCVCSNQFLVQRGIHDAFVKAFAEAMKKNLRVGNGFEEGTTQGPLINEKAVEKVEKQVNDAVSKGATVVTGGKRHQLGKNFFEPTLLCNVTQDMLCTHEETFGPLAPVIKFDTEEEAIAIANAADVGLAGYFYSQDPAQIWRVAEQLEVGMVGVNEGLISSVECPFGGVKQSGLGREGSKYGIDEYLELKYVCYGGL

[4] = target: T3, hSSADH (human succinic semialdehyde dehydrogenase) (Homo sapiens, UniProt P51649, E306Q); assay: as above; type: binding; details: read-out: K DNAD+
T3 construct: gene ALDH5A1; purified recombinant homotetramer, expressed and purified as in Didiasova et al. 2024
T3 sequence (P51649 48-535 E306Q): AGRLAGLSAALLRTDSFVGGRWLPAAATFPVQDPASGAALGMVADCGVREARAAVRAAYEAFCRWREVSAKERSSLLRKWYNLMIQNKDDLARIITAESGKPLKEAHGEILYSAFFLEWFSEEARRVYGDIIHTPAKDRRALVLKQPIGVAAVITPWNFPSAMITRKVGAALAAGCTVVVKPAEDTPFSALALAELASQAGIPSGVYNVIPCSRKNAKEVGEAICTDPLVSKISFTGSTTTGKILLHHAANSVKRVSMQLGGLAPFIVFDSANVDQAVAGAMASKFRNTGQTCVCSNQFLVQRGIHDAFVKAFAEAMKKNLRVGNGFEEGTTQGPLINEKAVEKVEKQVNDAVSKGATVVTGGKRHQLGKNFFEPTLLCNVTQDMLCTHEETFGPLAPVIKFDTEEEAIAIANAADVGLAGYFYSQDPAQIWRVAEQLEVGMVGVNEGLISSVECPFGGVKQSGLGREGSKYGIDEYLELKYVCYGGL

[5] = target: T1, hSSADH (human succinic semialdehyde dehydrogenase); assay: initial rates, NADH fluorescence (ex […], em […] nm), global fit to Equation ([…]); type: biochemical; details: partial non-competitive substrate inhibition, co-substrate NAD+, pH 8, potassium phosphate
[6] = target: the molecule itself; assay: not stated; purified recombinant hSSADH; the experiment on the oligomeric state is in Data S1 (not shown)
purified protein [7] = substrate: NC(=O)c1ccc[n+]([C@@H]2O[C@H](COP(=O)([O-])OP(=O)(O)OC[C@H]3O[C@@H](n4cnc5c(N)ncnc54)[C@H](O)[C@@H]3O)[C@@H](O)[C@H]2O)c1; assay: purified protein; type: biochemical, Homo sapiens; details: co-substrate SSA, pH 8, 100 mM potassium phosphate, 14°C, ordered bi-bi, partial substrate inhibition fit, varied: cofactor
purified protein [8] = substrate: O=CCCC(=O)O; assay: purified protein; type: biochemical, Homo sapiens; details: co-substrate NAD+, pH 8, 100 mM potassium phosphate, 14°C, ordered bi-bi, partial substrate inhibition fit

Ki [1]: 15 ± 2 µM
Molecule: NC(=O)C1=CN([C@@H]2O[C@H](COP(=O)(O)OP(=O)(O)OC[C@H]3O[C@@H](n4cnc5c(N)ncnc54)[C@H](O)[C@@H]3O)[C@@H](O)[C@H]2O)C=CC1 [NADH]

Kd [2]: 4.5 ± 0.8 µM
Kd [3]: 2.5 ± 0.2 µM
Kd [4]: 4.3 ± 0.4 µM
Molecule: NC(=O)c1ccc[n+]([C@@H]2O[C@H](COP(=O)([O-])OP(=O)(O)OC[C@H]3O[C@@H](n4cnc5c(N)ncnc54)[C@H](O)[C@@H]3O)[C@@H](O)[C@H]2O)c1 [NAD^+]

From Equation (5) (14°C) [5]: 13 ± 3 µM
Molecule: O=CCCC(=O)O [SSA]

B1: Human succinic semialdehyde dehydrogenase (enzyme)
chain: GRLAGLSAALLRTDSFVGGRWLPAAATFPVQDPASGAALGMVADCGVREARAAVRAAYEAFCRWREVSAKERSSLLRKWYNLMIQNKDDLARIITAESGKPLKEAHGEILYSAFFLEWFSEEARRVYGDIIHTPAKDRRALVLKQPIGVAAVITPWNFPSAMITRKVGAALAAGCTVVVKPAEDTPFSALALAELASQAGIPSGVYNVIPCSRKNAKEVGEAICTDPLVSKISFTGSTTTGKILLHHAANSVKRVSMELGGLAPFIVFDSANVDQAVAGAMASKFRNTGQTCVCSNQFLVQRGIHDAFVKAFAEAMKKNLRVGNGFEEGTTQGPLINEKAVEKVEKQVNDAVSKGATVVTGGKRHQLGKNFFEPTLLCNVTQDMLCTHEETFGPLAPVIKFDTEEEAIAIANAADVGLAGYFYSQDPAQIWRVAEQLEVGMVGVNEGLISSVECPFGGVKQSGLGREGSKYGIDEYLELKYVCYGGL
notes: Human succinic semialdehyde dehydrogenase (EC 1.2.1.24), gene ALDH5A1; this is surmised; also called hSSADH; WT hSSADH; source: recombinant, expressed and purified as described (Didiasova et al. 2024)
stoichiometry N [6]: 4

B2: hSSADH (human succinic semialdehyde dehydrogenase) (Homo sapiens) (protein)
chain: AGRLAGLSAALLRTDSFVGGRWLPAAATFPVQDPASGAALGMVADCGVREARAAVRAAYEAFCRWREVSAKERSSLLRKWYNLMIQNKDDLARIITAESGKPLKEAHGEILYSAFFLEWFSEEARRVYGDIIHTPAKDRRALVLKQPIGVAAVITPWNFPSAMITRKVGAALAAGCTVVVKPAEDTPFSALALAELASQAGIPSGVYNVIPCSRKNAKEVGEAICTDPLVSKISFTGSTTTGKILLHHAANSVKRVSMELGGLAPFIVFDSANVDQAVAGAMASKFRNTGQTCVCSNQFLVQRGIHDAFVKAFAEAMKKNLRVGNGFEEGTTQGPLINEKAVEKVEKQVNDAVSKGATVVTGGKRHQLGKNFFEPTLLCNVTQDMLCTHEETFGPLAPVIKFDTEEEAIAIANAADVGLAGYFYSQDPAQIWRVAEQLEVGMVGVNEGLISSVECPFGGVKQSGLGREGSKYGIDEYLELKYVCYGGL
notes: purified recombinant homotetramer, expressed and purified as in Didiasova et al. 2024
Km (purified protein [7]): 31 ± 5 µM
kcat (purified protein [7]): 26 ± 2 s⁻¹
Km (purified protein [8]): 1.2 ± 0.2 µM
kcat (purified protein [8]): 26 ± 2 s⁻¹
